“Also recorded” adds a separate entry of the source.
Columns and labels:
[1] = system: Mammary Tumors Induced by Dimethylbenz(a)anthracene; assay: Effects on mammary tumors induced by dimethylbenz(a)anthracene (DMBA), s.c. injection for 35 days; format: in vivo, Sprague-Dawley rats; settings: for Mean tumor volume / Mean tumor no. (no. tumors/rat): 24 mg/kg s.c., 35 days, 7-10 rats/group, mean ± S.D.; for Mean tumor volume: control (None) 1.48 ± 2.09; for Mean tumor no. (no. tumors/rat): control (None) 3.30 ± 2.60; for significance of treatment results (in words): compared to control tumors, Student's t test
Source text: Chemicals and Reagents. Estrone, 17-beta-estradiol 3-benzoate, estrone sulfate, aryl sulfatase (EC 3.1.6.1), beta-glucuronidase (EC3.2.1.31), 7,12-dimethylbenz(a)anthracene (DMBA), and 5-fluorouracil were obtained from Sigma Chemical Co. (St. Louis, Mo.). 4-Nitroestrone 3-methyl ether, 4-nitroestrone, and 2,4-dinitroestrone were synthesized by the procedures of Tomson et al., supra.
Animals. Virgin female Sprague-Dawley rats (The Charles River Co., Wilmington, Mass.) were housed 4 to 6/cage in a light (12 hr/day)--and temperature (24°)--controlled room and given a diet of Wayne Lab-Blox laboratory chow (Allied Mills, Inc., Chicago, Ill.) and tap water ad libitum. At 50 days of age, rats were intubated with DMBA (10 mg/100 g body weight) dissolved in sesame oil (20 mg/ml). Beginning at Day 45 after intubation, all animals were weighed and palpated once per week. Tumor volumes were calculated by measuring 2 diameters with a caliper and the third dimension with a ruler, then by substituting values:
where a, b, and c are the 3 different diameters of the tumor. The agreement of the in vivo tumor volume and measurements of excised tumors identified at necropsy was 95 to 99%. When about 75% of rats had palpable tumors (81 to 92 days after intubation), the animals were randomized, excluding rats with tumors larger than 2.00 ml and rats with more than 5 tumors/animal. The mean initial tumor volumes in control and treated groups ranged between 0.4 and 0.9 cu cm over the various experiments. When necessary, ovariectomy (ether anesthesia) was performed on the first or second day after the initiation of the study. The significance of difference between treatment groups was examined by Student's t test.
Estrogen derivatives (>99% pure by thin-layer chromatography) were injected s.c. daily (Monday to Friday). After distribution in SSV (steroid-suspending vehicles, 0.9% NaCl solution with 0.5% sodium carboxymethyl-cellulose-7, 0.4% polysorbate; and 0.9% benzylalcohol, obtained from the National Cancer Institute), the steroids (20 mg/ml) were administered at 0.12 to 54 mg/kg body weight. The suspension was sonicated before use to achieve uniform distribution. 17-Beta-estradiol 3-benzoate was dissolved directly in sesame oil to a concentration of 2.5 mg/ml; 5 fluorouracil was dissolved in water (25 mg/ml). The control group was given injections of SSV or sesame oil alone.
The toxicity of all antitumor agents was determined by comparing body weights of treated and control animals.
Postmortem Examination and Histopathology of Tumors. Rats were selected for colchicine injections (2 mg/kg body weight) 2 hr prior to necropsy to obtain an accurate measurement of mitotic indices of tumors. Animals were sacrificed with CO2 gas or bled to death via the abdominal aorta. Tumors and tissues were removed and preserved in 10% neutral buffered formalin for histopathological examination. Gross anomalies of abdominal, thoracic, and cranial cavities were recorded. Uteri were removed, trimmed, and weighed fresh. Ovaries, adrenals, and pituitaries were trimmed and weighed after fixation.
Histopathological observations on hematoxylin-and iosin-stained tumor and organ sections were performed, and comparisons between the control and treated groups were carried out using computer analysis. The microscopic parameters used to judge the degree of anaplasia in DMBA-induced mammary neoplasms, when treated animals were compared to controls, were: (a) the type of epithelium or mammary tissue involved; (b) the degree of encapsulation of the neoplasm; (c) the number of mitotic figures observed; (d) the extent of stroma invasions of the neoplastic epithelium; (e) the severity of lymphocytic infiltration of the neoplasms; and (f) the regressive, degenerative, or vacuolative changes in the neoplastic epithelium. […] Histological examination was performed on all mammary tumors. […]

[2] = target: T1, Porcine Endometrial Estrogen Sulfotransferase (Sus scrofa, UniProt A0A286ZW98); assay: Inhibition of porcine endometrial estrogen sulfotransferase; format: biochemical; settings: compared within Table III
T1 construct: from tissue; host or cells: porcine endometrium
T1 sequence (A0A286ZW98 1-296): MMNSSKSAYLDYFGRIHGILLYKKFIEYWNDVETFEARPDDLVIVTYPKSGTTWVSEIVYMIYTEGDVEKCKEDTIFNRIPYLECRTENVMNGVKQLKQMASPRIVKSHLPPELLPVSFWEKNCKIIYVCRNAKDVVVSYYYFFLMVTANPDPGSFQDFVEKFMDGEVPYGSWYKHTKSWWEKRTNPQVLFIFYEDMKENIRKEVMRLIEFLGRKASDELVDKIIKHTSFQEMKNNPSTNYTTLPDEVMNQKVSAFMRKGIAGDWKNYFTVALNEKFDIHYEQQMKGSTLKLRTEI
Experimental: Compounds prepared in the foregoing examples were evaluated as inhibitors of porcine estrogen sulfotransferase as taught by Rozhin et al., J. Biol. Chem., 252:7214-7220 (1977) and Brooks et al., U.S. Pat. No. 4,496,555.

[3] = system: MXT Mouse Mammary Ductal Carcinoma; assay: Subcutaneous treatment of early stage, hormone-dependent MXT mouse mammary ductal carcinoma; format: in vivo
[4] = system: hormone dependent mammary tumors, induced by 7,12-dimethylbenz(a)anthracene; settings: cited from earlier work

Compound | Mean tumor volume [1] [cu cm] | Mean tumor no. (no. tumors/rat) [1] [no. tumors/rat] | significance of treatment results (in words) [1] | estrogen sulfotransferase inhibitory activity (in words) [2] | growth of MXT mouse mammary ductal carcinoma (in words) ([3]; mouse, in vivo) | T/C Value Day 39 (%) ([3]; s.c. 200 mg/kg, QD 1-19) | Time for Median Tumor to Reach 500 mg ([3]; s.c. 200 mg/kg, QD 1-19, control 18) | growth of hormone dependent mammary tumors (in words) ([4]; DMBA-induced) | route of administration to which utility is limited (in words) ([4]; particularly intraperitoneal or subcutaneous injection)
COc1c(Br)cc2c(c1Br)CC[C@@H]1[C@@H]2CC[C@]2(C)C(=O)CC[C@@H]12 [2,4-Dibromoestrone 3-methyl ether, 2,4-dibromoestrone 3-methyl ether] | 1.24 ± 1.07 | 4.26 ± 2.51 | insignificant | – | – | – | – | – | –
C[C@]12CC[C@@H]3c4cc([N+](=O)[O-])c(O)c([N+](=O)[O-])c4CC[C@H]3[C@@H]1CCC2=O [2,4-Dinitroestrone, 2,4-dinitroestrone] | 1.14 ± 1.37 | 2.90 ± 1.67 | insignificant | – | – | – | – | – | –
C[C@]12CC[C@@H]3c4cccc([N+](=O)[O-])c4CC[C@H]3[C@@H]1CC[C@@H]2O [4-Nitroestra-1,3,5(10)-trien-17-beta-ol] | – | – | – | most active compound | inhibited the growth of MXT mouse mammary ductal carcinoma; also recorded: shown to inhibit the growth of murine MXT mammary ductal carcinoma | 8.2 | 45 | – | –
COc1ccc2c(c1[N+](=O)[O-])CC[C@@H]1[C@@H]2CC[C@]2(C)C(=O)CC[C@@H]12 [4-Nitroestrone 3-methyl ether, 4-Nitroestrone 3-Methyl Ether] | 0.05 ± 0.05 | 1.35 ± 0.40 | – | – | – | – | – | found to inhibit the growth of hormone dependent mammary tumors | essentially limited to parental administration
C[C@]12CC[C@@H]3c4ccc(O)c([N+](=O)[O-])c4CC[C@H]3[C@@H]1CCC2=O [4-Nitroestrone, 4-nitroestrone] | 0.75 ± 0.10 | 1.95 ± 2.60 | insignificant | – | – | – | – | – | –

— US4636496A, “Compositions inhibiting murine MXT ductal carcinoma” (Wayne State University, priority 1986, dated 1987)
